Assay results as given in the kinase profiling compilation of Christmann-Franck et al. (2016).

Experiments:
Experiment in all cases: KINOMEscan competition binding
Settings in all cases: compound 10.0 µM
AURKC (human) = AURKC (human) (UniProt Q9UQB9)
BMPR1B (human) = BMPR1B (human) (UniProt O00238)
CAMK1D (human) = CAMK1D (human) (UniProt Q8IU85)
CAMK1G (human) = CAMK1G (human) (UniProt Q96NX5)
CAMK2B (human) = CAMK2B (human) (UniProt Q13554)
CAMK4 (human) = CAMK4 (human) (UniProt Q16566)
CDK15 (human) = CDK15 (human) (UniProt Q96Q40)
CDK18 (human) = CDK18 (human) (UniProt Q07002)
CDK9 (human) = CDK9 (human) (UniProt P50750)
Chain of CDK9 (human) (P50750 whole entry, looked up): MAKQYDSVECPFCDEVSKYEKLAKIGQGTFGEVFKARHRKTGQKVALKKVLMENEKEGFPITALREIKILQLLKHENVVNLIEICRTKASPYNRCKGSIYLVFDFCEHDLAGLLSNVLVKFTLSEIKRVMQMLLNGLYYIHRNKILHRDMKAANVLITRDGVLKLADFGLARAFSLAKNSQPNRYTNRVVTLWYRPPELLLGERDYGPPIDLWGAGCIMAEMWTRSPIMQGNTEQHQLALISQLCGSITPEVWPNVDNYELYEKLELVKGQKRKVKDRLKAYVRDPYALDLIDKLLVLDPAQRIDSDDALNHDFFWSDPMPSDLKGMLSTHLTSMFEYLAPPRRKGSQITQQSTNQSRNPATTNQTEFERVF

CDKL1 (human) = CDKL1 (human) (UniProt Q00532)
CLK1 (human) = CLK1 (human) (UniProt P49759)
Chain of CLK1 (human) (P49759 whole entry, looked up): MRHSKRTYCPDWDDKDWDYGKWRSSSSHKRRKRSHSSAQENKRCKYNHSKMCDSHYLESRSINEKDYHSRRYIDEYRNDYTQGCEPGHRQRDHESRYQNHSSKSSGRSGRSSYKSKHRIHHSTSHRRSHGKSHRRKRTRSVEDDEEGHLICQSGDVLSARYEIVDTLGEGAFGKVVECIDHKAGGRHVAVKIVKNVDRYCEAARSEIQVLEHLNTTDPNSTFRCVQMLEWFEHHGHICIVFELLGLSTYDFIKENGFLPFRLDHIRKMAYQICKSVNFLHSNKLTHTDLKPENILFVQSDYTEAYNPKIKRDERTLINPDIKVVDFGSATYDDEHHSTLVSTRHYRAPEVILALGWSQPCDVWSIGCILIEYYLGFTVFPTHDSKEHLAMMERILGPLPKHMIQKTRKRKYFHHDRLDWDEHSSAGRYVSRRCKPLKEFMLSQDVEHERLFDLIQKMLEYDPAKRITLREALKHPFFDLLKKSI

CLK4 (human) = CLK4 (human) (UniProt Q9HAZ1)
DCLK1 (human) = DCLK1 (human) (UniProt O15075)
FGR (human) = FGR (human) (UniProt P09769)
IGF1R (human) = IGF1R (human) (UniProt P08069)
IKBKE (human) = IKBKE (human) (UniProt Q14164)
Chain of IKBKE (human) (Q14164 whole entry, looked up): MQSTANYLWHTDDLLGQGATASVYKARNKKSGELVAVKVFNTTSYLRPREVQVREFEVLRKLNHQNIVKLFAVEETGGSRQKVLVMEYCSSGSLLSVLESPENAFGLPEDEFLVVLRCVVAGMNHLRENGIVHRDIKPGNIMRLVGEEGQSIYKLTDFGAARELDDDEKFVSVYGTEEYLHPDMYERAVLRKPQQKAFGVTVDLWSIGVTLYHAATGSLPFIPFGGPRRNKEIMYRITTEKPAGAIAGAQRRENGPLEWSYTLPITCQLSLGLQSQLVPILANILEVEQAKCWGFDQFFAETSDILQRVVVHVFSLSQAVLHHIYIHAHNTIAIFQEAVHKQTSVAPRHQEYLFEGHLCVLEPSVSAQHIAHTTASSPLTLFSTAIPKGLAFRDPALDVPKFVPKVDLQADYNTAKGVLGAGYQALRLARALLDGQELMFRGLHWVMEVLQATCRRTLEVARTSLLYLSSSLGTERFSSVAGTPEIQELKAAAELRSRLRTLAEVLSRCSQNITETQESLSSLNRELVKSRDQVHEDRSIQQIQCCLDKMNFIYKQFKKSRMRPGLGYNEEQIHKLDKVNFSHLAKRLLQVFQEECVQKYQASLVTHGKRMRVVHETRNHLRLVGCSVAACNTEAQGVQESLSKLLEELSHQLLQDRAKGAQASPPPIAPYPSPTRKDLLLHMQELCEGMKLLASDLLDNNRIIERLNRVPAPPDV

[1] = biological target: JAK1 JH1 catalytic (human) (UniProt P23458)
MAP2K1 (human) = MAP2K1 (human) (UniProt Q02750)
MAP3K7 (human) = MAP3K7 (human) (UniProt O43318)
Chain of MAP3K7 (human) (O43318 whole entry, looked up): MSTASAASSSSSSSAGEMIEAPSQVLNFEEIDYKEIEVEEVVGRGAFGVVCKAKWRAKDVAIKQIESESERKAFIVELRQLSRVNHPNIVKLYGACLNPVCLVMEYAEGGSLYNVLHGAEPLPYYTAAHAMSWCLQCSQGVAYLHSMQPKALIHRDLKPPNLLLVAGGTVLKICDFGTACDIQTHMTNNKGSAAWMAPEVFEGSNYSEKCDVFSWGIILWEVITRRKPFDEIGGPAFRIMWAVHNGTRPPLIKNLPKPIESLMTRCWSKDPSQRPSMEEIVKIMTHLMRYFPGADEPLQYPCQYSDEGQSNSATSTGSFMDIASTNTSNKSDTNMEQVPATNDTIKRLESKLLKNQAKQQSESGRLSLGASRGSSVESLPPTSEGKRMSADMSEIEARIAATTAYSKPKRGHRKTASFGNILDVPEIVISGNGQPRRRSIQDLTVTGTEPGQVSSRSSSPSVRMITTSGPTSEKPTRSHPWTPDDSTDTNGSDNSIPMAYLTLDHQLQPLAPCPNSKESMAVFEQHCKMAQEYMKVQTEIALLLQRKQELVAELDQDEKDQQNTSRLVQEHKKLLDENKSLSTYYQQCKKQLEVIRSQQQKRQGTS

MARK2 (human) = MARK2 (human) (UniProt Q7KZI7)
MINK1 (human) = MINK1 (human) (UniProt Q8N4C8)
NEK4 (human) = NEK4 (human) (UniProt P51957)
NEK5 (human) = NEK5 (human) (UniProt Q6P3R8)
PI4KB (human) = PI4KB (human) (UniProt Q9UBF8)
PIM3 (human) = PIM3 (human) (UniProt Q86V86)
PKMYT1 (human) = PKMYT1 (human) (UniProt Q99640)
PLK4 (human) = PLK4 (human) (UniProt O00444)
PRKD2 (human) = PRKD2 (human) (UniProt Q9BZL6)
Chain of PRKD2 (human) (Q9BZL6 whole entry, looked up): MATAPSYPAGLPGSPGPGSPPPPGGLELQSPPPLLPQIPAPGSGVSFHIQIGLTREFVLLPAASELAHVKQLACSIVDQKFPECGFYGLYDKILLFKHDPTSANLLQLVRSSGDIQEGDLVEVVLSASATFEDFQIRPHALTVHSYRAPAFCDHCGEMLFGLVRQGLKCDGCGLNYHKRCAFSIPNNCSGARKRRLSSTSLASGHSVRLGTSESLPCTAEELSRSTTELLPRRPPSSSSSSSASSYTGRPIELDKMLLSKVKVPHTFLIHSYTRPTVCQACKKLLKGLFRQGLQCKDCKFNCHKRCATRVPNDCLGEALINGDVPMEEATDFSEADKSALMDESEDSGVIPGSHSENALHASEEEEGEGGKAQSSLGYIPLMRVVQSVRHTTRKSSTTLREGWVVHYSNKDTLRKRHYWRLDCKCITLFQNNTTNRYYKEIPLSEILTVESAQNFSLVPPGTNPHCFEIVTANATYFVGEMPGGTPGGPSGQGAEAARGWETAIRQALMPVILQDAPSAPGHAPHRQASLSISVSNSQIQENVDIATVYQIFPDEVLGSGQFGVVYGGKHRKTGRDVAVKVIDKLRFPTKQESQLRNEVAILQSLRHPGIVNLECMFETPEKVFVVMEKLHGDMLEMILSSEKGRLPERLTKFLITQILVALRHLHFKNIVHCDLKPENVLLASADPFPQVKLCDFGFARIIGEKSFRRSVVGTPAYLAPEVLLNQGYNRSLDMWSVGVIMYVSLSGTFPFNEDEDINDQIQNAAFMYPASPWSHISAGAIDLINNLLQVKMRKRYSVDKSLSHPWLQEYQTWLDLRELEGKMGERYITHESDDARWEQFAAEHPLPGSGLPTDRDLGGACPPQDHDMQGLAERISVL

PTK2 (human) = PTK2 (human) (UniProt Q05397)
RPS6KA6 KD1 (human) = RPS6KA6 KD1 (human) (UniProt Q9UK32)
RPS6KA6 KD2 (human) = RPS6KA6 KD2 (human) (UniProt Q9UK32)
SIK3 (human) = SIK3 (human) (UniProt Q9Y2K2)
SLK (human) = SLK (human) (UniProt Q9H2G2)
STK3 (human) = STK3 (human) (UniProt Q13188)
STK32C (human) = STK32C (human) (UniProt Q86UX6)
TAOK2 (human) = TAOK2 (human) (UniProt Q9UL54)
TIE1 (human) = TIE1 (human) (UniProt P35590)
Chain of TIE1 (human) (P35590 whole entry, looked up): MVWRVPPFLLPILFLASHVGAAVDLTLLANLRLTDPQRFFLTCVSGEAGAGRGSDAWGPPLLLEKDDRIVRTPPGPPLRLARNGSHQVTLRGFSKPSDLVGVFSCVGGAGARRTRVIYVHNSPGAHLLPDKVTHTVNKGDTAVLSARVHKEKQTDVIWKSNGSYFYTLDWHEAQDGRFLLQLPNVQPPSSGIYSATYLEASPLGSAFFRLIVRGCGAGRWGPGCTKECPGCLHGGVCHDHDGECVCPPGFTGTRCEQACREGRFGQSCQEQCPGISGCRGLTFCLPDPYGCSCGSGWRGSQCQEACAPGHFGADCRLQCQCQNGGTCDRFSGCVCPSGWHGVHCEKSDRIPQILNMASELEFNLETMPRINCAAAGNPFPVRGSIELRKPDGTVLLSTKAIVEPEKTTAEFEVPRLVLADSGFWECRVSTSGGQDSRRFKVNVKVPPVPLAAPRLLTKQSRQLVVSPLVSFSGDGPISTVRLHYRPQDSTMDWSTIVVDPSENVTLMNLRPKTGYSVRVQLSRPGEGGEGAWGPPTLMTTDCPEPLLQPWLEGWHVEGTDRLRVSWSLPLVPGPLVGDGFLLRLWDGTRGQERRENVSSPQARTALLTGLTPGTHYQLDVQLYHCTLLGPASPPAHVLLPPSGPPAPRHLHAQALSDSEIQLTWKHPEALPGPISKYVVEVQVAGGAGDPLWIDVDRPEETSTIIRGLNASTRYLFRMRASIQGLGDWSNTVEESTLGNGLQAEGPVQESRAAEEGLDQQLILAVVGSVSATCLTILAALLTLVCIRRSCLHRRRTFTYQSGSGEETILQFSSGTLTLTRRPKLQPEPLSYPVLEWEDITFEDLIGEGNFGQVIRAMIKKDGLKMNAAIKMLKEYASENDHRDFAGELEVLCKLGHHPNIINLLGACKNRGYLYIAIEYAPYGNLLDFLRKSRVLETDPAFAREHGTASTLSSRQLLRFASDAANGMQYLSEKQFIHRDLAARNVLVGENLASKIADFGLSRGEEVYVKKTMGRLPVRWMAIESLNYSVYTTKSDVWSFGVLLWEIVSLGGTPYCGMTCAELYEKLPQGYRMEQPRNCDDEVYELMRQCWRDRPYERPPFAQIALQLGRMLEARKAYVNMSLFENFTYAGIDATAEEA

TXK (human) = TXK (human) (UniProt P42681)
[2] = biological target: TYK2 JH1 catalytic (human) (UniProt P29597)
ULK2 (human) = ULK2 (human) (UniProt Q8IYT8)

Chain of CAMK2B (human) (Q13554 whole entry, looked up): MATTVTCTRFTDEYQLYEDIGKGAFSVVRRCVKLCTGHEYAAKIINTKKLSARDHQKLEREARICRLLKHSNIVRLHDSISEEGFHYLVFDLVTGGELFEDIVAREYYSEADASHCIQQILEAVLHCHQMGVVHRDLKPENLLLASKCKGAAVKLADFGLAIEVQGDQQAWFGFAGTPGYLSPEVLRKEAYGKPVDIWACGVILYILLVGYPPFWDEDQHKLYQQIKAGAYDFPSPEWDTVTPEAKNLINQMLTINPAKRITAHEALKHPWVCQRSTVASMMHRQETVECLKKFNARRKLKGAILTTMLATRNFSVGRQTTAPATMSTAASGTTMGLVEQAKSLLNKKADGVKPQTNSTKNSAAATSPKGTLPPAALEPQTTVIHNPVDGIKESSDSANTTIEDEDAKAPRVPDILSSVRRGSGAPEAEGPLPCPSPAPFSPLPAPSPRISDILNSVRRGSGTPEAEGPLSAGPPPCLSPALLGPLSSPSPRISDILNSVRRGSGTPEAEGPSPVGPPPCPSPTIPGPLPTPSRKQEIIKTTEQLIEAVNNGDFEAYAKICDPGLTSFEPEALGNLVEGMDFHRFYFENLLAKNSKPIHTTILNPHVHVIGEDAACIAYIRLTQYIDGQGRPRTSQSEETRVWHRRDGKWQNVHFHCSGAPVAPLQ

Row | SMILES | kinase still bound, per cent of control (AURKC (human)) [%] | kinase still bound, per cent of control (BMPR1B (human)) [%] | kinase still bound, per cent of control (CAMK1D (human)) [%] | kinase still bound, per cent of control (CAMK1G (human)) [%] | kinase still bound, per cent of control (CAMK2B (human)) [%] | kinase still bound, per cent of control (CAMK4 (human)) [%] | kinase still bound, per cent of control (CDK15 (human)) [%] | kinase still bound, per cent of control (CDK18 (human)) [%] | kinase still bound, per cent of control (CDK9 (human)) [%] | kinase still bound, per cent of control (CDKL1 (human)) [%] | kinase still bound, per cent of control (CLK1 (human)) [%] | kinase still bound, per cent of control (CLK4 (human)) [%] | kinase still bound, per cent of control (DCLK1 (human)) [%] | kinase still bound, per cent of control (FGR (human)) [%] | kinase still bound, per cent of control (IGF1R (human)) [%] | kinase still bound, per cent of control (IKBKE (human)) [%] | kinase still bound, per cent of control [1] [%] | kinase still bound, per cent of control (MAP2K1 (human)) [%] | kinase still bound, per cent of control (MAP3K7 (human)) [%] | kinase still bound, per cent of control (MARK2 (human)) [%] | other results
1 | CNC(=O)Nc1ccc(-c2nc(N3CC4CCC(C3)O4)c3cnn(C4CCC5(CC4)OCCO5)c3n2)cc1 | 86 | 83 | 95 | 100 | 100 | 100 | 100 | 92 | 100 | 84 | 29 | 88 | 100 | 100 | 93 | 100 | 82 | 100 | 98 | 100 | kinase still bound, per cent of control (MINK1 (human)): 100%; kinase still bound, per cent of control (NEK4 (human)): 82%; kinase still bound, per cent of control (NEK5 (human)): 81%; kinase still bound, per cent of control (PI4KB (human)): 100%; kinase still bound, per cent of control (PIM3 (human)): 100%; kinase still bound, per cent of control (PKMYT1 (human)): 75%; kinase still bound, per cent of control (PLK4 (human)): 75%; kinase still bound, per cent of control (PRKD2 (human)): 100%; kinase still bound, per cent of control (PTK2 (human)): 78%; kinase still bound, per cent of control (RPS6KA6 KD1 (human)): 87%; kinase still bound, per cent of control (RPS6KA6 KD2 (human)): 84%; kinase still bound, per cent of control (SIK3 (human)): 35%; kinase still bound, per cent of control (SLK (human)): 100%; kinase still bound, per cent of control (STK3 (human)): 97%; kinase still bound, per cent of control (STK32C (human)): 90%; kinase still bound, per cent of control (TAOK2 (human)): 100%; kinase still bound, per cent of control (TIE1 (human)): 98%; kinase still bound, per cent of control (TXK (human)): 94%; kinase still bound, per cent of control [2]: 100%; kinase still bound, per cent of control (ULK2 (human)): 90%
2 | N#C/C(=C1/Nc2ccccc2S1)c1ccnc(NCCc2cccnc2)n1 | 67 | 18 | 70 | 61 | 49 | 100 | 86 | 92 | 60 | 45 | 69 | 29 | 78 | 100 | 100 | 100 | 100 | 9.6 | 22 | 75 | kinase still bound, per cent of control (MINK1 (human)): 45%; kinase still bound, per cent of control (NEK4 (human)): 100%; kinase still bound, per cent of control (NEK5 (human)): 100%; kinase still bound, per cent of control (PI4KB (human)): 20%; kinase still bound, per cent of control (PIM3 (human)): 2.3%; kinase still bound, per cent of control (PKMYT1 (human)): 95%; kinase still bound, per cent of control (PLK4 (human)): 68%; kinase still bound, per cent of control (PRKD2 (human)): 100%; kinase still bound, per cent of control (PTK2 (human)): 100%; kinase still bound, per cent of control (RPS6KA6 KD1 (human)): 28%; kinase still bound, per cent of control (RPS6KA6 KD2 (human)): 52%; kinase still bound, per cent of control (SIK3 (human)): 100%; kinase still bound, per cent of control (SLK (human)): 100%; kinase still bound, per cent of control (STK3 (human)): 59%; kinase still bound, per cent of control (STK32C (human)): 99%; kinase still bound, per cent of control (TAOK2 (human)): 45%; kinase still bound, per cent of control (TIE1 (human)): 100%; kinase still bound, per cent of control (TXK (human)): 61%; kinase still bound, per cent of control [2]: 22%; kinase still bound, per cent of control (ULK2 (human)): 83%
3 | O=c1[nH]c2ccccc2n1C1CCN(Cc2ccc(-c3nc4cc5[nH]cnc5cc4nc3-c3ccccc3)cc2)CC1 | 88 | 88 | 76 | 90 | 86 | 100 | 76 | 97 | 100 | 84 | 100 | 95 | 86 | 100 | 100 | 100 | 100 | 83 | 85 | 83 | kinase still bound, per cent of control (MINK1 (human)): 88%; kinase still bound, per cent of control (NEK4 (human)): 93%; kinase still bound, per cent of control (NEK5 (human)): 97%; kinase still bound, per cent of control (PI4KB (human)): 60%; kinase still bound, per cent of control (PIM3 (human)): 100%; kinase still bound, per cent of control (PKMYT1 (human)): 94%; kinase still bound, per cent of control (PLK4 (human)): 60%; kinase still bound, per cent of control (PRKD2 (human)): 95%; kinase still bound, per cent of control (PTK2 (human)): 95%; kinase still bound, per cent of control (RPS6KA6 KD1 (human)): 75%; kinase still bound, per cent of control (RPS6KA6 KD2 (human)): 100%; kinase still bound, per cent of control (SIK3 (human)): 88%; kinase still bound, per cent of control (SLK (human)): 59%; kinase still bound, per cent of control (STK3 (human)): 100%; kinase still bound, per cent of control (STK32C (human)): 87%; kinase still bound, per cent of control (TAOK2 (human)): 85%; kinase still bound, per cent of control (TIE1 (human)): 100%; kinase still bound, per cent of control (TXK (human)): 87%; kinase still bound, per cent of control [2]: 66%; kinase still bound, per cent of control (ULK2 (human)): 88%
